PubChem BioAssay AID179 (DTP/NCI, 2004)
Where “and” joins values, the source holds several entries; their conditions need not be identical. Identical values can stand only once. Calls of active or inactive are those of the source.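 How the source made its calls: active means compounds giving half or more protection of infected cells from virus-caused growth loss, again on retest; inactive means the rest.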

System: CEM cells HIV-1 protection, formazan growth assay
Test: NCI AIDS Antiviral Assay
Details: for IC50: measured here: growth of uninfected CEM cells
How it was run: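 Steps: treat uninfected and HIV-1-infected human CEM cells at five drug levels; quantify growth by soluble formazan; retest any compound reaching 50% protection; classify actives from the retest.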

With CC1CC(=O)Nc2ccccc2N1C(=O)CN1CCC(CCCCN(C)C)CC1 (stereo not given) the EC50 was greater than 251 µM and the IC50 was greater than 251 µM.
Cc1cc(C)n(C(C)(C(=O)Cc2ccccc2)n2nc(C)cc2C)n1 was tested, and the EC50 was greater than 200 µM and the IC50 was greater than 200 µM.
In the case of Cc1ccc(SCC(OCn2cnc3c(Cl)nc(N)nc32)[C@H](C)F)cc1 (stereo not given in full), the EC50 is reported as greater than 200 µM and the IC50 is reported as 24 µM.
Cc1cc(=O)n2c(n1)Nc1ccc(Cl)cc1C2 showed an EC50 greater than 52.5 µM and an IC50 greater than 52.5 µM.
COc1ccc2c(c1O)C13CCN(C)C(C2)C1CCC1(C3)OCCO1 (stereo not given) showed an EC50 greater than 380 µM and an IC50 of 204 µM.
C[N+](C)=c1ccc2nc3c(ccc4ccccc43)oc-2c1 was tested, and the EC50 was greater than 60.3 µM and the IC50 was 8.32 µM.
Nc1nc(Cl)c2ncn(C3OC(CO)CC3F)c2n1 (stereo not given) gave an EC50 greater than 49 µM and an IC50 greater than 49 µM.
Work on CC1=C(C)C2(C#N)CC(=O)N=C2O1 (stereo not given) yielded an EC50 greater than 200 µM and an IC50 greater than 200 µM.
In the case of O=C1c2cscc2C(=O)c2c(Cl)sc(Cl)c21, the EC50 is reported as greater than 0.2 µM and the IC50 is reported as greater than 0.2 µM.
Nc1ncnc2c1ncn2C1OC(C(O)CO)C(O)C1O (stereo not given) showed an EC50 greater than 200 µM and an IC50 greater than 200 µM.
C=CCC1NCCC2=C1C(S(=O)(=O)c1ccc(C)cc1)c1ccccc12 (stereo not given) gave an EC50 greater than 200 µM and an IC50 of 10.5 µM.
CO/N=C1/C(n2[nH]c(=O)n(-c3ccccc3)c2=O)C2C=CC1n1c(=O)n(-c3ccccc3)c(=O)n12 (stereo not given) gave an EC50 greater than 200 µM and an IC50 greater than 200 µM.
Compound [N-]=[N+]=Nc1nc2ccccc2c(N=[N+]=[N-])c1Cl has an EC50 greater than 200 µM and an IC50 of 132 µM.
In the case of Nc1nc(N)c2nc(-c3ccco3)cnc2n1, the outcome is reported as “inactive”.
In the case of O=c1ccn(/C=C(\c2ccccc2)S(=O)Cc2ccccc2)c(=S)[nH]1 (stereo not given), the outcome is reported as “inactive”.
In the case of NCCCCN(CCCN)Cc1ccc2ccccc2c1, the EC50 is reported as greater than 200 µM and the IC50 is reported as 72.4 µM.
S=C(Nc1ccc2c(c1)oc1ccccc12)c1cccs1 was tested, and the EC50 was greater than 200 µM and the IC50 was greater than 200 µM.
Work on COc1ccc(NC(=O)CC(=O)n2nc(C)c(N=Nc3ccc(C)c(C)c3)c2C)cc1 yielded an EC50 greater than 200 µM and an IC50 greater than 200 µM.
CC(=O)Oc1cccc2c(/C=N/NC(N)=S)ncc(C)c12 was tested, and the EC50 was greater than 200 µM and the IC50 was 1.23 µM.
Work on O=S1c2ccccc2NC(c2ccc3ccccc3c2)CC1c1ccccc1 (stereo not given) yielded an EC50 greater than 7.08 µM and an IC50 greater than 7.08 µM.
With COc1ccc(OC(C(=O)O)C(C)C)c2c1CCCC2=O (stereo not given) the outcome was “inactive”.
Compound Cc1c(C)c2c(c(N)c1C#N)C(=O)N(CCc1ccccc1)C2=O has an EC50 greater than 200 µM and an IC50 of 170 µM.
NS(=O)(=O)c1cc2c(cc1Cl)NC(C(=O)NNC(=O)c1ccncc1)=NS2(=O)=O gave an EC50 greater than 77.6 µM and an IC50 greater than 77.6 µM.
For COc1ccc(C(=O)c2ccc(OC)c(S(=O)(=O)N(C)C)c2)cc1S(=O)(=O)N(C)C, the EC50 was greater than 79.4 µM and the IC50 was greater than 79.4 µM.
Compound CC(C)N(C(=O)C12C3C4C1C1C2C3C41C(=O)O)C(C)C (stereo not given) has an EC50 greater than 129 µM and an IC50 greater than 129 µM.
In the case of Cc1nc2c3c(Cc4ccccc4)c(C)[nH]c3ncn2n1, the EC50 is reported as greater than 200 µM and the IC50 is reported as 117 µM.
CC(=O)OC1[C@@H]2[C@@H](COC(c3c(F)cccc3Cl)N2OC(C)=O)O[C@H]1n1ccc(=O)[nH]c1=O (stereo not given in full) was tested, and the EC50 was greater than 200 µM and the IC50 was 115 µM.
Work on Oc1cc(-c2ccccc2)cn2c1nc1ccccc12 yielded an EC50 greater than 200 µM and an IC50 of 1.07 µM.
Cc1ccc(-c2n[nH]c(=O)n2/N=C\c2ccccc2)cc1 gave an EC50 greater than 200 µM and an IC50 of 110 µM.
With CC(=O)OCC1OC(n2c(-c3ccccc3)c(C(C)=O)c(-c3cccc4ccccc34)c(C#N)c2=S)C(OC(C)=O)C(OC(C)=O)C1OC(C)=O (stereo not given) the EC50 was greater than 200 µM and the IC50 was 85.1 µM and 117 µM.
CC1(C)C/C=C\CCC(O)C(O)CCC(C)(C)C1=O (stereo not given) showed an EC50 greater than 200 µM and an IC50 greater than 200 µM.
With c1ccc2c(c1)Cc1ccccc1-c1c-2[nH]c2ccccc12 the EC50 was greater than 200 µM and the IC50 was 10.5 µM.
c1ccc(N=C2c3ccccc3C3=NCCCN32)cc1 was tested, and the EC50 was greater than 100 µM and the IC50 was greater than 100 µM.
CCCC1(CCCNC(=O)c2ccccc2)OCc2ccccc2CO1 gave an EC50 greater than 513 µM and an IC50 greater than 513 µM.
For O=C1C(Cl)=C(Cl)C(=O)N1c1ccc(F)cc1, the outcome was “inactive”.
O=C1c2c(ccc3c2CCCC3)CC1Cc1ccc2c(c1)CCCC2 (stereo not given) was tested, and the EC50 was greater than 200 µM and the IC50 was greater than 200 µM.
For O=C1C=CC(=O)c2c(O)c(CO)c(CO)c(O)c21, the outcome was “inactive”.
In the case of Nc1ccc(/C=C\c2ccc(N)cc2S(=O)(=O)O)c(S(=O)(=O)O)c1, the EC50 is reported as greater than 200 µM and the IC50 is reported as greater than 200 µM.
Cc1ccc(C2=C/C(=C/c3ccc(N(CCC#N)CCC#N)cc3)C(=O)O2)cc1 showed an EC50 greater than 200 µM and an IC50 greater than 200 µM.
Work on O=C1CSCc2sccc21 yielded an EC50 greater than 200 µM and an IC50 greater than 200 µM.
O=C(c1nc2ccc([N+](=O)[O-])cc2[nH]c1=O)C(O)c1ccc([N+](=O)[O-])cc1 (stereo not given) gave an EC50 of 58.9 µM and an IC50 of 110 µM.
CC1OC(OCC2OC(Oc3c(-c4ccc(O)c(O)c4)oc4cc(O)cc(O)c4c3=O)C(O)C(O)C2O)C(O)C(O)C1O (stereo not given) was tested, and the EC50 was greater than 200 µM, the outcome was “inactive” and the IC50 was 1.02 µM.
With CC/C=C\C/C=C\C/C=C\CCCCCCCC(=O)OCC(O)CO (stereo not given) the EC50 was greater than 28.2 µM and the IC50 was greater than 28.2 µM.
With CC(=O)OCCN1CCOC(O)(c2cccc(C(F)(F)F)c2)C1 (stereo not given) the EC50 was greater than 200 µM and the IC50 was 117 µM.
In the case of Cc1ncc([N+](=O)[O-])n1CCNC(=O)CCCCn1ccnc1[N+](=O)[O-], the EC50 is reported as greater than 200 µM and the IC50 is reported as greater than 200 µM.
Compound C[N+](C)(C)/N=C/c1ccc(O)c(O)c1 has an EC50 greater than 200 µM and an IC50 greater than 200 µM.
For O=C1C(Cl)=C(O)C2(Cl)C(Cl)=C(Cl)C12Cl (stereo not given), the outcome was “inactive”.
CCN(CC)CCSc1c2cc(OC)ccc2nc2ccc(OC)cc12 gave an EC50 greater than 200 µM and an IC50 of 2.95 µM.
For COC(=O)c1c[nH]cc1CCc1c[nH]cc1C(=O)OC, the outcome was “inactive”.
Compound O=S1(=O)OCCOS(=O)(=O)C1(Br)Br has an EC50 greater than 363 µM and an IC50 greater than 363 µM.
With O=c1cc(N=Nc2ccc(Br)cc2)[nH]c(=S)[nH]1 the EC50 was greater than 200 µM and the IC50 was 1.1 µM.
Work on O=C1c2ccccc2C(=O)c2sc(Nc3cccc(Cl)c3)nc21 yielded an EC50 greater than 5.89 µM and an IC50 of 3.39 µM.
Compound Cc1nn(-c2ccccc2)c(CC(Cc2c([N+](=O)[O-])c(C)nn2-c2ccccc2)c2ccccc2)c1[N+](=O)[O-] has an EC50 greater than 10 µM and an IC50 greater than 10 µM.
CC1=C(C(=O)Nc2ccccc2)C(c2cccc3ccccc23)C(C(=O)Nc2ccccc2)=C(C)N1 was tested, and the outcome was “inactive”.
COc1cc(NC=O)c(OC)cc1Cl was tested, and the outcome was “inactive”.
Work on FC(F)(Sc1nc2ccccc2[nH]1)c1nc2ccccc2o1 yielded an EC50 greater than 200 µM and an IC50 greater than 200 µM.
For COc1cc(NCc2ccc3nc(N)nc(N)c3c2C)cc(OC)c1OC (tested in a mixture with another compound), the EC50 was greater than 4.47 µM and the IC50 was 0.00363 µM.
In the case of N#C/C(=C/C=C/c1ccco1)C(N)=O, the EC50 is reported as greater than 200 µM and the IC50 is reported as greater than 200 µM.
For CC(=N/N=C/c1ccccn1)/C(C)=N/N=C(C)/C(C)=N/N=C(C)/C(C)=N/N=C(C)/C(C)=N\N=C\c1ccccn1, the outcome was “inactive”.
Cc1ccc2c(CC(=O)O)cc(=O)oc2c1 was tested, and the EC50 was greater than 229 µM and the IC50 was 38.9 µM.
Cc1cn(C2C=CC(CO)(C(F)(F)F)O2)c(=O)[nH]c1=O (stereo not given) showed an EC50 greater than 200 µM and an IC50 greater than 200 µM.
CC(=O)OCC1OC(N2C(=O)NC(=O)C3C=C4CCCCC4=CC32)C(OC(C)=O)C1OC(C)=O (stereo not given) was tested, and the EC50 was greater than 200 µM and the IC50 was greater than 200 µM.
For O=C(C[C@H](Cl)[C@H](NC(=O)OCc1ccccc1)C(=O)O)NO, the outcome was “inactive”.
OCCN1CCN(CC/C=C2/c3ccccc3Sc3ccc(Cl)cc32)CC1 gave an EC50 greater than 200 µM and an IC50 of 7.41 µM.
NC(CC(=O)N/C=N\O)C(=O)O (stereo not given) was tested, and the EC50 was greater than 200 µM and the IC50 was greater than 200 µM.
